Data taken from ChEMBL document CHEMBL1152632, “Synthesis and evaluation of functionalized isoindigos as antiproliferative agents” (Bioorg Med Chem, 2009).
Activity calls are given as the source filed them. No cut-off for these calls is given here.

What was measured:
[1] = molecular target: Tyrosine-protein kinase JAK2 (Homo sapiens) (UniProt O60674); assay: Inhibition of JAK2 at 10 uM
[2] = molecular target: Cyclin-dependent kinase 3 (Homo sapiens) (UniProt Q00526); assay: Inhibition of CDK3 at 10 uM
[3] = molecular target: Mitogen-activated protein kinase 11 (Homo sapiens) (UniProt Q15759); assay: Inhibition of p38beta at 10 uM
[4] = molecular target: Glycogen synthase kinase-3 beta (Homo sapiens) (UniProt P49841); assay: Inhibition of GSK3-beta at 10 uM
[5] = molecular target: Dual specificity mitogen-activated protein kinase kinase 2 (Homo sapiens) (UniProt P36507); assay: Inhibition of MEK2 at 10 uM
[6] = molecular target: Fibroblast growth factor receptor 2 (Homo sapiens) (UniProt P21802); assay: Inhibition of FGFR2 at 10 uM
HL-60 = assay: Antiproliferative activity against human HL60 cells after 5 days by MTT assay; type: functional, cell-based; settings: HL-60, 120 h
[7] = molecular target: Receptor tyrosine-protein kinase erbB-4 (Homo sapiens) (UniProt Q15303); assay: Inhibition of ERBB4 at 10 uM
[8] = molecular target: Atypical kinase COQ8A, mitochondrial (Homo sapiens) (UniProt Q8NI60); assay: Inhibition of ADCK3 at 10 uM
[9] = molecular target: Serine/threonine-protein kinase PLK4 (Homo sapiens) (UniProt O00444); assay: Inhibition of PLK4 at 10 uM
[10] = molecular target: Phosphatidylinositol 4,5-bisphosphate 3-kinase catalytic subunit gamma isoform (Homo sapiens) (UniProt P48736); assay: Inhibition of PIK3CG at 10 uM
[11] = Antiproliferative activity against human IMR90 cells after 72 hrs by MTT assay; type: cell-based; settings: IMR-90, 72 h
[12] = molecular target: Mitogen-activated protein kinase 3 (Homo sapiens) (UniProt P27361); assay: Inhibition of ERK1 at 10 uM
[13] = molecular target: Platelet-derived growth factor receptor alpha (Homo sapiens) (UniProt P16234); assay: Inhibition of PDGFRA at 10 uM
[14] = molecular target: Insulin receptor (Homo sapiens) (UniProt P06213); assay: Inhibition of INSR at 10 uM
Insulin receptor (Homo sapiens), sequence (P06213 28-758 limits assumed): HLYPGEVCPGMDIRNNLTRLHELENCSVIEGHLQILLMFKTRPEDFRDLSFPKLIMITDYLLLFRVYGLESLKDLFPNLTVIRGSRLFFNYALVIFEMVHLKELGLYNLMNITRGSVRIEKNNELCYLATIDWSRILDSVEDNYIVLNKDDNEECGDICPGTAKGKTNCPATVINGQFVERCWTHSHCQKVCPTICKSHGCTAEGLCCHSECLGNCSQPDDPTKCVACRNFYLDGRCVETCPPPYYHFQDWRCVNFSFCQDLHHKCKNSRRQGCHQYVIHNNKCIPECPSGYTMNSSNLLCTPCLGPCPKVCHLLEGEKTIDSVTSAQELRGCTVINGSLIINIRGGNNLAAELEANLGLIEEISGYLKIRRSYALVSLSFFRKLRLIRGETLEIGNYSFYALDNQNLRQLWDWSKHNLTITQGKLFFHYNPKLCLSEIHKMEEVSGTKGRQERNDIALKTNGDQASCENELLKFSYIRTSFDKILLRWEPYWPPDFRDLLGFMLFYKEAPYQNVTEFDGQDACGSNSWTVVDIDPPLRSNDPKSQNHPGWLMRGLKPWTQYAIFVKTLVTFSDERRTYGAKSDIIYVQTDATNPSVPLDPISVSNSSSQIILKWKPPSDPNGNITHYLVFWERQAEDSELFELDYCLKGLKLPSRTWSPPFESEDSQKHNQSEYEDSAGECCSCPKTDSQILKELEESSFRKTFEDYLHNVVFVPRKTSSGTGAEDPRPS
Insulin receptor (Homo sapiens), sequence (P06213 763-1382 limits assumed): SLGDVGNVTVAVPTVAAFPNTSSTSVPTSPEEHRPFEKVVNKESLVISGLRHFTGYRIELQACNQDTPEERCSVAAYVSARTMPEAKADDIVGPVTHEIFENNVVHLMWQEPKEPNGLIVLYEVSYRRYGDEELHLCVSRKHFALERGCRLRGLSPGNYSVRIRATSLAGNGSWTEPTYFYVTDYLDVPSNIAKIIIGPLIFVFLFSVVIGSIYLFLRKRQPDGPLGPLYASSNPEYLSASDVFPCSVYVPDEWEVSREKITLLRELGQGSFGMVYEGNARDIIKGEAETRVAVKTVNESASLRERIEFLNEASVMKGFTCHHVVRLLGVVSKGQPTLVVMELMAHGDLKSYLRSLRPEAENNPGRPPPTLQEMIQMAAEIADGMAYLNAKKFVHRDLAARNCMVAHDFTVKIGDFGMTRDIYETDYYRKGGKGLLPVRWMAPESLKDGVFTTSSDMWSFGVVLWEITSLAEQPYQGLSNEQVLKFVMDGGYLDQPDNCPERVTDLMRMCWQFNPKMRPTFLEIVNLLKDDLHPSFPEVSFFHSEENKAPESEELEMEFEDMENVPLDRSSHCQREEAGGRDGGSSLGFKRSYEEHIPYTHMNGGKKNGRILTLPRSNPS

[15] = molecular target: Proto-oncogene tyrosine-protein kinase Src (Homo sapiens) (UniProt P12931); assay: Inhibition of SRC at 10 uM
[16] = molecular target: Cyclin-dependent kinase 9 (Homo sapiens) (UniProt P50750); assay: Inhibition of CDK9 at 10 uM
[17] = molecular target: Cyclin-dependent kinase 7 (Homo sapiens) (UniProt P50613); assay: Inhibition of CDK7 at 10 uM
Cyclin-dependent kinase 7 (Homo sapiens), sequence (P50613 whole entry): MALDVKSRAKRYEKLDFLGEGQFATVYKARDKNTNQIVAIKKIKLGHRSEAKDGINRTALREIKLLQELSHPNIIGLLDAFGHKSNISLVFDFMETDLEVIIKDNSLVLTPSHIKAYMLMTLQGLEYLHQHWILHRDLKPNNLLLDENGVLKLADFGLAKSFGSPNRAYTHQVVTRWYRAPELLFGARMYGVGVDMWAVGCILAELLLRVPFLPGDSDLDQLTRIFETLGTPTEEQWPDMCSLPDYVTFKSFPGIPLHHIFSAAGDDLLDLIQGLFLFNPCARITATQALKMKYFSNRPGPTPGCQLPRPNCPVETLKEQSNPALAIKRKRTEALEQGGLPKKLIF

[18] = molecular target: Cyclin-dependent kinase 2 (Homo sapiens) (UniProt P24941); assay: Inhibition of CDK2 at 10 uM
[19] = molecular target: Dual specificity tyrosine-phosphorylation-regulated kinase 1B (Homo sapiens) (UniProt Q9Y463); assay: Inhibition of DYRK1B at 10 uM
[20] = molecular target: Macrophage colony-stimulating factor 1 receptor (Homo sapiens) (UniProt P07333); assay: Inhibition of CSF1R at 10 uM
[21] = molecular target: Serine/threonine-protein kinase pim-1 (Homo sapiens) (UniProt P11309); assay: Inhibition of PIM1 at 10 uM
[22] = molecular target: Serine/threonine-protein kinase Chk1 (Homo sapiens) (UniProt O14757); assay: Inhibition of CHEK1 at 10 uM
[23] = molecular target: Non-receptor tyrosine-protein kinase TYK2 (Homo sapiens) (UniProt P29597); assay: Inhibition of TYK2 at 10 uM
[24] = molecular target: ALK tyrosine kinase receptor (Homo sapiens) (UniProt Q9UM73); assay: Inhibition of ALK at 10 uM
[25] = molecular target: Receptor-type tyrosine-protein kinase FLT3 (Homo sapiens) (UniProt P36888); assay: Inhibition of FLT3 at 10 uM
[26] = molecular target: Platelet-derived growth factor receptor beta (Homo sapiens) (UniProt P09619); assay: Inhibition of PDGFRB at 10 uM
Platelet-derived growth factor receptor beta (Homo sapiens), sequence (P09619 whole entry): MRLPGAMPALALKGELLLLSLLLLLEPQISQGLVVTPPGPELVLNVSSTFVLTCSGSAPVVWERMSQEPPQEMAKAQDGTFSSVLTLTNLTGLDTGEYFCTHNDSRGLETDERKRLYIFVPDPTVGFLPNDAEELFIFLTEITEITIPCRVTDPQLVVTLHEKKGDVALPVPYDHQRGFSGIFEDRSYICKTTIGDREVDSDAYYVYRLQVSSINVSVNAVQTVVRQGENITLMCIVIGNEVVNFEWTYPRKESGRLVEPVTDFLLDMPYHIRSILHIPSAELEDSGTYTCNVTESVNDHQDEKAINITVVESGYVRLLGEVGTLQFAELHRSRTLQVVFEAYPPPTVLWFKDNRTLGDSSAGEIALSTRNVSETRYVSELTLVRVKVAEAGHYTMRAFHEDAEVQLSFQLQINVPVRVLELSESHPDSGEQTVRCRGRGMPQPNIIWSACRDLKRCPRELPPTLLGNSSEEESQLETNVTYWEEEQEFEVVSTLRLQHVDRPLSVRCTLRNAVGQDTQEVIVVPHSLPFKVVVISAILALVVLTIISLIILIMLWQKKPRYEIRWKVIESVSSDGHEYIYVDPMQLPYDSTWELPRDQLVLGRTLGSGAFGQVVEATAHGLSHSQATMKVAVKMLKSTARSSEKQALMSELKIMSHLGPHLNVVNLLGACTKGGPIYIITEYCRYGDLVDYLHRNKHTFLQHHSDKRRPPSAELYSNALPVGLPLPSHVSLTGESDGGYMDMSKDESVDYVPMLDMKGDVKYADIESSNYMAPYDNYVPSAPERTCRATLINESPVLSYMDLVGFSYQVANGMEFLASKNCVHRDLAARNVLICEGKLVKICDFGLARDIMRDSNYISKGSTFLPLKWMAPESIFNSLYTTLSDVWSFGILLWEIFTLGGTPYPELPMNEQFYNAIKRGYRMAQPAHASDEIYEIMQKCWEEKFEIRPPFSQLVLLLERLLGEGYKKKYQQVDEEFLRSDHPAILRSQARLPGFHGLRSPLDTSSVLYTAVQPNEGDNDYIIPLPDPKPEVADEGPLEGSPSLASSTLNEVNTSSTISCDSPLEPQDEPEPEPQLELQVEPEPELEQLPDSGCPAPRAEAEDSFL

[27] = molecular target: Tyrosine-protein kinase ABL1 (Homo sapiens) (UniProt P00519); assay: Inhibition of ABL1 at 10 uM
[28] = molecular target: Serine/threonine-protein kinase pim-3 (Homo sapiens) (UniProt Q86V86); assay: Inhibition of PIM3 at 10 uM
[29] = molecular target: Tyrosine-protein kinase BTK (Homo sapiens) (UniProt Q06187); assay: Inhibition of BTK at 10 uM
[30] = molecular target: Casein kinase I isoform gamma-2 (Homo sapiens) (UniProt P78368); assay: Inhibition of CSNK1G2 at 10 uM
[31] = molecular target: Insulin-like growth factor 1 receptor (Homo sapiens) (UniProt P08069); assay: Inhibition of IGF1R at 10 uM
[32] = molecular target: Mast/stem cell growth factor receptor Kit (Homo sapiens) (UniProt P10721); assay: Inhibition of KIT at 10 uM
[33] = molecular target: Serine/threonine-protein kinase pim-2 (Homo sapiens) (UniProt Q9P1W9); assay: Inhibition of PIM2 at 10 uM
[34] = molecular target: Dual specificity mitogen-activated protein kinase kinase 1 (Homo sapiens) (UniProt Q02750); assay: Inhibition of MEK1 at 10 uM
K562 = assay: cells; settings: Homo sapiens, K562, 72 h
Description: Antiproliferative activity against human K562 cells after 72 hrs by MTT assay

[35] = molecular target: RAF proto-oncogene serine/threonine-protein kinase (Homo sapiens) (UniProt P04049); assay: Inhibition of RAF1 at 10 uM
HCT-116 = assay: cells; settings: Homo sapiens, HCT-116, 72 h
Description: Antiproliferative activity against human HCT116 cells after 72 hrs by MTT assay

[36] = molecular target: Hepatocyte growth factor receptor (Homo sapiens) (UniProt P08581); assay: Inhibition of MET at 10 uM
[37] = molecular target: Serine/threonine-protein kinase B-raf (Homo sapiens) (UniProt P15056); assay: Inhibition of BRAF at 10 uM
[38] = molecular target: SRSF protein kinase 3 (Homo sapiens) (UniProt Q9UPE1); assay: Inhibition of SRPK3 at 10 uM
[39] = molecular target: Mitogen-activated protein kinase 14 (Homo sapiens) (UniProt Q16539); assay: Inhibition of p38alpha at 10 uM
[40] = molecular target: Receptor tyrosine-protein kinase erbB-2 (Homo sapiens) (UniProt P04626); assay: Inhibition of ERBB2 at 10 uM
[41] = molecular target: cAMP-dependent protein kinase catalytic subunit alpha (Homo sapiens) (UniProt P17612); assay: Inhibition of PKACalpha at 10 uM
Huh-7 = assay: Antiproliferative activity against human HuH7 cells after 72 hrs by MTT assay; type: functional, cell-based; settings: Huh-7, 72 h
[42] = molecular target: Cyclin-dependent kinase 2/cyclin A (Homo sapiens) (UniProt P24941+P20248+P78396); assay: Inhibition of CDK2/cyclin A at 10 uM by IMAP assay; type: protein-complex assay
[43] = molecular target: TGF-beta receptor type-1 (Homo sapiens) (UniProt P36897); assay: Inhibition of TGFBR1 at 10 uM
[44] = molecular target: Angiopoietin-1 receptor (Homo sapiens) (UniProt Q02763); assay: Inhibition of TIE2 at 10 uM
Angiopoietin-1 receptor (Homo sapiens), sequence (Q02763 whole entry): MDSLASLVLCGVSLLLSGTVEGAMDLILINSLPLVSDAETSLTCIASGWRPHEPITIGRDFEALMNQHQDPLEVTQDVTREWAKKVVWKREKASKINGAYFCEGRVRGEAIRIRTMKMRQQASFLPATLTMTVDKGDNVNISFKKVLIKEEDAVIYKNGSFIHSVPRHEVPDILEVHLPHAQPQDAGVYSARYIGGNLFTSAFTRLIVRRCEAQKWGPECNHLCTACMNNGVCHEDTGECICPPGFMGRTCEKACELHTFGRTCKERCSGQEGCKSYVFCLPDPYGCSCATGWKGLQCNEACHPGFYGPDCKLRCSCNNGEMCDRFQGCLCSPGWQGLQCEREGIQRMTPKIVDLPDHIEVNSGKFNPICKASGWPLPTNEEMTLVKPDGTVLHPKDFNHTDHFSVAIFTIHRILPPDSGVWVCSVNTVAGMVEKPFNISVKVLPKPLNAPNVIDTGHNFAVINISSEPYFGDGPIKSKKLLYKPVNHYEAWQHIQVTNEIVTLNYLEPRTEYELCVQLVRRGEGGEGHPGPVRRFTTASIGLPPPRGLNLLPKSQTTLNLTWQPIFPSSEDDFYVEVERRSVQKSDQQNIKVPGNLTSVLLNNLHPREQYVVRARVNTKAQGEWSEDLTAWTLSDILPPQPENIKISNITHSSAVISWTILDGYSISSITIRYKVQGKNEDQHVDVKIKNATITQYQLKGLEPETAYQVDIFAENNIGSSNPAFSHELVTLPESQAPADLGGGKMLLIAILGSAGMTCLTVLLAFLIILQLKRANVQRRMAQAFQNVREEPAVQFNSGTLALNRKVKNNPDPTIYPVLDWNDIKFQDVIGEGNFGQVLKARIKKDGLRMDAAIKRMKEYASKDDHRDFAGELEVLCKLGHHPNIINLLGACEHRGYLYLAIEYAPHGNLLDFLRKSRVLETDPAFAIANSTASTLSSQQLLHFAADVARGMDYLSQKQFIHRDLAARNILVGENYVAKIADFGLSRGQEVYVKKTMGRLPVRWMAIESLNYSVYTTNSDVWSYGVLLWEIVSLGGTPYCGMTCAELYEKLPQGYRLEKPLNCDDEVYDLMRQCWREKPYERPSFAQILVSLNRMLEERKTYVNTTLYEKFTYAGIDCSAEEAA

[45] = molecular target: Fibroblast growth factor receptor 3 (Homo sapiens) (UniProt P22607); assay: Inhibition of FGFR3 at 10 uM
[46] = molecular target: Epidermal growth factor receptor (Homo sapiens) (UniProt P00533); assay: Inhibition of EGFR at 10 uM

Tyrosine-protein kinase JAK2 (Homo sapiens), sequence (O60674 whole entry): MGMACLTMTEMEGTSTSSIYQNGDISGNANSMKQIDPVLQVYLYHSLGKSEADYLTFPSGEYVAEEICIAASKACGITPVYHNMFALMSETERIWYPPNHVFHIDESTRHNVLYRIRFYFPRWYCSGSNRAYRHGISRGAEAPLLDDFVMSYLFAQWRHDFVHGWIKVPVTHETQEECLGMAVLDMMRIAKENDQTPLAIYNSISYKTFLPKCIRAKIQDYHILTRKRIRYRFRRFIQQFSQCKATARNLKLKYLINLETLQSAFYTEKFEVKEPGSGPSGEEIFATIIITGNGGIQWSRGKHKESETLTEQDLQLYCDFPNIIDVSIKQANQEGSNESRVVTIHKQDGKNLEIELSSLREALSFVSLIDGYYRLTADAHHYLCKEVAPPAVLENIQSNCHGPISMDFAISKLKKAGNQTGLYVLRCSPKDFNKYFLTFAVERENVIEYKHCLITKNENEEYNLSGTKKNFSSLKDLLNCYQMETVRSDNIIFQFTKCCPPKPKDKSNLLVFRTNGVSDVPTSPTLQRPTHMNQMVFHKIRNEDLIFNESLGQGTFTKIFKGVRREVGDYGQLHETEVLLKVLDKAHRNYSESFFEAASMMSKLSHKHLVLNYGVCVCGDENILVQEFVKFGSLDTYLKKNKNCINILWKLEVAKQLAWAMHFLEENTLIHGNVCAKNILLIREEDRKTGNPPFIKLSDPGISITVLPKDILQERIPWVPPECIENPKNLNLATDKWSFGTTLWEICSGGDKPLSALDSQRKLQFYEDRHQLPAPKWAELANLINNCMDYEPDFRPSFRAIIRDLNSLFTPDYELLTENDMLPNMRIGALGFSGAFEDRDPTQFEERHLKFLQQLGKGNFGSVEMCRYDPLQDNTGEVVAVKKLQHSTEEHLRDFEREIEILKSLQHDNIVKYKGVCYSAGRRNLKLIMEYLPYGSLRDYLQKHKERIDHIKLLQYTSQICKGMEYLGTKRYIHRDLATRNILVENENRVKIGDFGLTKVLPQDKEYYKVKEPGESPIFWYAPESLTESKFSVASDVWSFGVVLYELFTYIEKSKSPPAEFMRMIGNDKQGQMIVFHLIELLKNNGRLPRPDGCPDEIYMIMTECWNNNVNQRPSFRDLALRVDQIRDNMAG

For CN1C(=O)/C(=C2/C(=O)Nc3ccccc32)c2ccccc21 [MEISOINDIGO], the inhibition [1] was 4%, the inhibition [2] was 0% and the inhibition [3] was 0%. It also gave an inhibition [4] of 16%, an inhibition [5] of 0% and an inhibition [6] of 0%. For the same molecule, the IC50 (HL-60) was 12.2 µM, the inhibition [7] was 0% and the inhibition [8] was 0%. For the same molecule, the inhibition [9] was 12%, the inhibition [10] was 0% and the IC50 [11] was 7.7 µM. For the same molecule, the inhibition [12] was 0%, the inhibition [13] was 0% and the inhibition [14] was 10%. It also gave an inhibition [15] of 15%, an inhibition [16] of 0% and an inhibition [17] of 56%. For the same molecule, the inhibition [18] was 4%, the inhibition [19] was 0% and the inhibition [20] was 0%. The inhibition [21] was 3%, the inhibition [22] was 0% and the inhibition [23] was 8%. The inhibition [24] was 0%, the inhibition [25] was 0% and the inhibition [26] was 15%. It also gave an inhibition [27] of 11%, an inhibition [28] of 7% and an inhibition [29] of 0%. It also gave an inhibition [30] of 0%, an inhibition [31] of 13% and an inhibition [32] of 8%. It also gave an inhibition [33] of 2%, an inhibition [34] of 16% and an IC50 (K562) of 6.7 µM. It also gave an inhibition [35] of 0%, an IC50 (HCT-116) of 15.4 µM and an inhibition [36] of 0%. It also gave an inhibition [37] of 0%, an inhibition [38] of 0% and an inhibition [39] of 0%. For the same molecule, the inhibition [40] was 0%, the inhibition [41] was 0% and the IC50 (Huh-7) was 18.3 µM. The inhibition [42] was “inactive”, the inhibition [43] was 0% and the inhibition [44] was 6%. It also gave an inhibition [45] of 4% and an inhibition [46] of 16%.
